Source: the NIST ThermoML archive (doi:10.1021/acs.jced.8b00693)
± gives the expanded uncertainty stated by the source.

Legend:
[1] = wn = mass fraction of the nth substance listed; details: 298.15 K, 100 kPa, Liquid, Pycnometric method
[2] = refractive index (Na D-line) (dimensionless); wn = mass fraction of the nth substance listed; details: 298.15 K, 100 kPa, Liquid, Standard Abbe refractometry

Q: With `O=S(=O)([O-])[O-].[Na+].[Na+]` [sodium sulfate] + O as the compound, how does the mass density ([1]; w1 = 0.218) read?
A: 1183 ± 24 kg/m3

Q: And the refractive index ([2]; w1 = 0.218)?
A: 1.3628 ± 0.002

Q: Which mass density ([1]; w1 = 0.6463) does the source give for `O=S(=O)([O-])[O-].[Cs+].[Cs+]` [cesium sulfate] + O here?
A: 2009.2 ± 24 kg/m3

Q: And the refractive index ([2]; w1 = 0.6463)?
A: 1.4095 ± 0.002

Q: For `O=S(=O)([O-])[O-].[Rb+].[Rb+]` [rubidium sulfate] + O, which mass density ([1]; w1 = 0.3365) is on record?
A: 1363.1 ± 24 kg/m3

Q: And the refractive index ([2]; w1 = 0.3365)?
A: 1.3649 ± 0.002
